Biological target: HEK293 cells with stable expression of the GRIN1 gene and tetracycline-inducible expression of the GRIN2B gene (NMDA receptor, NR2B) (Homo sapiens, UniProt Q13224)
Assay: Fluo-8 Ca2+ flux assay: reversal of Ro 25-6981-mediated suppression of the Ca2+ response to co-agonist (glutamate/glycine); also: test concentration or dose not given here
Assay type: cell-based
Details: reversal of the Ro 25-6981 suppression of the Ca2+ response to co-agonist (glutamate/glycine)

Sequence of HEK293 cells with stable expression of the GRIN1 gene and tetracycline-inducible expression of the GRIN2B gene (NMDA receptor, NR2B) (Q13224 27-1484, other chains not shown): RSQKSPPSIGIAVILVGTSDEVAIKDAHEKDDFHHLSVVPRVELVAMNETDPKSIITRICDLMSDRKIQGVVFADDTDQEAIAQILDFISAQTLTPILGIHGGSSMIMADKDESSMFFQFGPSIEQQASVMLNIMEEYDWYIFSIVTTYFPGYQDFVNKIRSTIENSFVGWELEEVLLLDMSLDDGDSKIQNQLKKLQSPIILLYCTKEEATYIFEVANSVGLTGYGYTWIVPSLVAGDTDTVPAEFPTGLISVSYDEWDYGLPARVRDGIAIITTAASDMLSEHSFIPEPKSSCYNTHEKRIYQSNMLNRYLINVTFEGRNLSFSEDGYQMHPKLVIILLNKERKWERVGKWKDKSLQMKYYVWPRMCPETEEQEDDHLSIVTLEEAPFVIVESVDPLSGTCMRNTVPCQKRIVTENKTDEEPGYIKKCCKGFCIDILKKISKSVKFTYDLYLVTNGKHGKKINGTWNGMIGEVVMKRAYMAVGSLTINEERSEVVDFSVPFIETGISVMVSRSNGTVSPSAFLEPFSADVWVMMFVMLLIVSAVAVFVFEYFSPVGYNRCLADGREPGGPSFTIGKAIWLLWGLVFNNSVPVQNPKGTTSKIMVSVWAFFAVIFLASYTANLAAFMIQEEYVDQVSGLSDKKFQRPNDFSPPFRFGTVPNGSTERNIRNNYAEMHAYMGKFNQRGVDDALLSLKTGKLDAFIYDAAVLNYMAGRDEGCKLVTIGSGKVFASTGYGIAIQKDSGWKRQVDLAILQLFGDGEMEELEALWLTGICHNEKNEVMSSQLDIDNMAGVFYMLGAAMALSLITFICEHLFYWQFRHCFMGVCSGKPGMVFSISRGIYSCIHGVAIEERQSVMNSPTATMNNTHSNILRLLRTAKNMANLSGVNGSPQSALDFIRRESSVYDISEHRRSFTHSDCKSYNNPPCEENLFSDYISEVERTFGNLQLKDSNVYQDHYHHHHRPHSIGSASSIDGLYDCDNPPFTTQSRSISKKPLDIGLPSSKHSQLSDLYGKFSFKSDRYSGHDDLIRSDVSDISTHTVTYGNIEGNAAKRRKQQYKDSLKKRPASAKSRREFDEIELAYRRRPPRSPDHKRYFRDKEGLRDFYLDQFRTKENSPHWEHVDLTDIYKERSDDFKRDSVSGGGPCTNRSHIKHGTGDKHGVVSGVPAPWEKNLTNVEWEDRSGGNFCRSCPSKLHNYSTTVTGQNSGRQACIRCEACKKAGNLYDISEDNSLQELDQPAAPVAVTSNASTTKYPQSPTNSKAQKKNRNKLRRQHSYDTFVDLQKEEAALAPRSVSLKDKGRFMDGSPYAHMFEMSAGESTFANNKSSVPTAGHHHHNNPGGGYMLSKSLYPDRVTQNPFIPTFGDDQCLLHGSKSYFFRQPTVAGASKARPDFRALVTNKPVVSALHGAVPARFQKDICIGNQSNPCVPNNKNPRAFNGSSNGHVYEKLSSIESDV

Row | SMILES | Response Recovered (%)
1 | N=C(N)c1cn(CC(=O)N2CCCC2)c(=O)c2c(-c3ccc(F)c(C(F)(F)F)c3)csc12 [Example 113, 3-(4-fluoro-3-(trifluoromethyl)phenyl)-4-oxo-5-(2-oxo-2-(pyrrolidin-1-yl)ethyl)-4,5-dihydrothieno[3,2-c]pyridine-7-carboximidamide] | 47
2 | O=C(Cn1cc(N2CCCC2)c2scc(-c3ccc(F)c(C(F)(F)F)c3)c2c1=O)N1CCCC1 [Example 114, 3-(4-fluoro-3-(trifluoromethyl)phenyl)-5-(2-oxo-2-(pyrrolidin-1-yl)ethyl)-7-(pyrrolidin-1-yl)thieno[3,2-c]pyridin-4(5H)-one] | 15
3 | O=C(Cn1cc(N2CCC2)c2scc(-c3ccc(F)c(C(F)(F)F)c3)c2c1=O)N1CCC(F)C1 (stereo not drawn) [Example 115, 7-(azetidin-1-yl)-3-[4-fluoro-3-(trifluoromethyl)phenyl]-5-[2-(3-fluoropyrrolidin-1-yl)-2-oxoethyl]-4H,5H-thieno[3,2-c]pyridin-4-one] | 8.3
4 | CN(C)Cc1cn(CC(=O)N2CCC(F)C2)c(=O)c2c(-c3ccc(F)c(C(F)(F)F)c3)csc12 (stereo not drawn) [Example 116, 7-((dimethylamino)methyl)-3-(4-fluoro-3-(trifluoromethyl)phenyl)-5-(2-(3-fluoropyrrolidin-1-yl)-2-oxoethyl)thieno[3,2-c]pyridin-4(5H)-one] | 70
5 | CCN(CC)Cc1cn(CC(=O)N2CCC(F)C2)c(=O)c2c(-c3ccc(F)c(C(F)(F)F)c3)csc12 (stereo not drawn) [Example 117, 7-((diethylamino)methyl)-3-(4-fluoro-3-(trifluoromethyl)phenyl)-5-(2-(3-fluoropyrrolidin-1-yl)-2-oxoethyl)thieno[3,2-c]pyridin-4(5H)-one 2,2,2-trifluoroacetate] | 30
6 | O=C(Cn1cc(CN2CCC2)c2scc(-c3ccc(F)c(C(F)(F)F)c3)c2c1=O)N1CCC(F)C1 (stereo not drawn) [Example 118, 7-(azetidin-1-ylmethyl)-3-(4-fluoro-3-(trifluoromethyl)phenyl)-5-(2-(3-fluoropyrrolidin-1-yl)-2-oxoethyl)thieno[3,2-c]pyridin-4(5H)-one] | 77
7 | O=C(Cn1cc(CN2CCCC2)c2scc(-c3ccc(F)c(Cl)c3)c2c1=O)N1CCC(F)C1 (stereo not drawn) [Example 119, 3-(3-chloro-4-fluorophenyl)-5-(2-(3-fluoropyrrolidin-1-yl)-2-oxoethyl)-7-(pyrrolidin-1-ylmethyl)thieno[3,2-c]pyridin-4(5H)-one] | 75
8 | CN(C)Cc1cn(CC(=O)N2CCC(F)C2)c(=O)c2c(-c3ccc(F)c(Cl)c3)csc12 (stereo not drawn) [Example 120, 3-(3-chloro-4-fluorophenyl)-7-((dimelhylamino)methyl)-5-(2-(3-fluoropyrrolidin-1-yl)-2-oxoethyl)thieno[3,2-c]pyridin-4(5H)-one] | 61
9 | O=C(Cn1cc(CN2CCCC2)c2scc(-c3ccc(Cl)c(Cl)c3)c2c1=O)N1CCC(F)C1 (stereo not drawn) [Example 121, 3-(3,4-dichlorophenyl)-5-(2-(3-fluoropyrrolidin-1-yl)-2-oxoethyl)-7-(pyrrolidin-1-ylmethyl)thieno[3,2-c]pyridin-4(5H)-one] | 59
10 | O=C(Cn1cc(CN2CCC2)c2scc(-c3ccc(Cl)c(Cl)c3)c2c1=O)N1CCC(F)C1 (stereo not drawn) [Example 122, 7-(azetidin-1-ylmethyl)-3-(3,4-dichlorophenyl)-5-(2-(3-fluoropyrrolidin-1-yl)-2-oxoethyl)thieno[3,2-c]pyridin-4(5H)-one] | 27
11 | CN(C)Cc1cn(CC(=O)N2CCC(F)C2)c(=O)c2c(-c3ccc(Cl)c(Cl)c3)csc12 (stereo not drawn) [Example 123, 3-(3,4-dichlorophenyl)-7-((dimethylamino)methyl)-5-(2-(3-fluoropyrrolidin-1-yl)-2-oxoethyl)thieno[3,2-c]pyridin-4(5H)-one] | 70
12 | O=C(Cn1cc(CN2CCC2)c2scc(-c3ccc(F)c(Cl)c3)c2c1=O)N1CCC(F)C1 (stereo not drawn) [Example 124, 7-(azetidin-1-ylmethyl)-3-(3-chloro-4-fluorophenyl)-5-(2-(3-fluoropyrrolidin-1-yl)-2-oxoethyl)thieno[3,2-c]pyridin-4(5H)-one] | 76
13 | O=C(Cn1cc(CN2CC(F)C2)c2scc(-c3ccc(F)c(Cl)c3)c2c1=O)N1CCC(F)C1 (stereo not drawn) [Example 125, 3-(3-chloro-4-fluorophenyl)-7-((3-fluoroazetidin-1-yl)methyl)-5-(2-(3-fluoropyrrolidin-1-yl)-2-oxoethyl)thieno[3,2-c]pyridin-4(5H)-one] | 53
14 | COCc1cn(CC(=O)N2CCC(F)C2)c(=O)c2c(-c3ccc(F)c(C(F)(F)F)c3)csc12 (stereo not drawn) [Example 126, 3-(4-fluoro-3-(trifluoromethyl)phenyl)-5-(2-(3-fluoropyrrolidin-1-yl)-2-oxoethyl)-7-(methoxymethyl)thieno[3,2-c]pyridin-4(5H)-one] | 46
15 | CCOCc1cn(CC(=O)N2CCC(F)C2)c(=O)c2c(-c3ccc(F)c(C(F)(F)F)c3)csc12 (stereo not drawn) [Example 127, 7-(ethoxymethyl)-3-(4-fluoro-3-(trifluoromethyl)phenyl)-5-(2-(3-fluoropyrrolidin-1-yl)-2-oxoethyl)thieno[3,2-c]pyridin-4(5H)-one] | 48
16 | COCc1cn(CC(=O)N2CCC(F)C2)c(=O)c2c(-c3ccc(F)c(Cl)c3)csc12 (stereo not drawn) [Example 128, 3-(3-chloro-4-fluorophenyl)-5-(2-(3-fluoropyrrolidin-1-yl)-2-oxoethyl)-7-(methoxymethyl) thieno[3,2-c]pyridin-4(5H)-one] | 23
17 | O=C(Cn1cc(CO)c2scc(-c3ccc(F)c(Cl)c3)c2c1=O)N1CCC(F)C1 (stereo not drawn) [Example 129, 3-(3-chloro-4-fluorophenyl)-5-(2-(3-fluoropyrrolidin-1-yl)-2-oxoethyl)-7-(hydroxymethyl) thieno[3,2-c]pyridin-4(5H)-one] | 39
18 | CCOCc1cn(CC(=O)N2CCC(F)C2)c(=O)c2c(-c3ccc(F)c(Cl)c3)csc12 (stereo not drawn) [Example 130, 3-(3-chloro-4-fluorophenyl)-7-(ethoxymethyl)-5-(2-(3-fluoropyrrolidin-1-yl)-2-oxoethyl)thieno[3,2-c]pyridin-4(5H)-one] | 42
19 | O=C(Cn1cc(CO)c2scc(-c3ccc(Cl)c(Cl)c3)c2c1=O)N1CCC(F)C1 (stereo not drawn) [Example 131, 3-(3,4-dichlorophenyl)-5-(2-(3-fluoropyrrolidin-1-yl)-2-oxoethyl)-7-(hydroxymethyl) thieno[3,2-c]pyridin-4(5H)-one] | 72
20 | COCc1cn(CC(=O)N2CCC(F)C2)c(=O)c2c(-c3ccc(Cl)c(Cl)c3)csc12 (stereo not drawn) [Example 132, 3-(3,4-dichlorophenyl)-5-(2-(3-fluoropyrrolidin-1-yl)-2-oxoethyl)-7-(methoxymethyl) thieno[3,2-c]pyridin-4(5H)-one] | 20
21 | CC(C)(O)c1cn(CC(=O)N2CCC(F)C2)c(=O)c2c(-c3ccc(F)c(C(F)(F)F)c3)csc12 (stereo not drawn) [Example 133, 3-(4-fluoro-3-(trifluoromethyl)phenyl)-5-(2-(3-fluoropyrrolidin-1-yl)-2-oxoethyl)-7-(2-hydroxypropan-2-yl)thieno[3,2-c]pyridin-4(5H)-one] | 9.9
22 | O=C(Cn1cc(/C=N/O)c2scc(-c3ccc(F)c(C(F)(F)F)c3)c2c1=O)N1CCC(F)C1 (stereo not drawn) [Example 134, (E)-3-(4-fluoro-3-(trifluoromethyl)phenyl)-5-(2-(3-fluoropyrrolidin-1-yl)-2-oxoethyl)-4-oxo-4,5-dihydrothieno[3,2-c]pyridine-7-carbaldehyde oxime] | 130
23 | C/C(=N/O)c1cn(CC(=O)N2CCC(F)C2)c(=O)c2c(-c3ccc(F)c(C(F)(F)F)c3)csc12 (stereo not drawn) [Example 135, (Z)-3-(4-fluoro-3-(trifluoromethyl)phenyl)-5-(2-(3-fluoropyrrolidin-1-yl)-2-oxoethyl)-7-(1-(hydroxyimino)ethyl)thieno[3,2-c]pyridin-4(5H)-one] | 11
24 | CC1(F)CN(C(=O)Cn2ccc3scc(-c4cnc(C#N)c(Cl)c4)c3c2=O)C1 [Example 136, 3-chloro-5-(5-(2-(3-fluoro-3-methylazetidin-1-yl)-2-oxoethyl)-4-oxo-4,5-dihydrothieno[3,2-c]pyridin-3-yl)picolinonitrile] | 17
25 | CCC1(F)CN(C(=O)Cn2ccc3scc(-c4cnc(C#N)c(Cl)c4)c3c2=O)C1 [Example 137, 3-chloro-5-(5-(2-(3-ethyl-3-fluoroazetidin-1-yl)-2-oxoethyl)-4-oxo-4,5-dihydrothieno[3,2-c]pyridin-3-yl)picolinonitrile] | 22
26 | N#Cc1ncc(-c2csc3ccn(CC(=O)N4CC(F)(CF)C4)c(=O)c23)cc1Cl [Example 138, 3-chloro-5-(5-(2-(3-fluoro-3-(fluoromethyl)azetidin-1-yl)-2-oxoethyl)-4-oxo-4,5-dihydrothieno[3,2-c]pyridin-3-yl)picolinonitrile] | 10
27 | CC1(F)CN(C(=O)Cn2ccc3scc(-c4cnc(F)c(F)c4)c3c2=O)C1 [Example 139, 3-(5,6-difluoropyridin-3-yl)-5-(2-(3-fluoro-3-methylazetidin-1-yl)-2-oxoethyl)thieno[3,2-c]pyridin-4(5H)-one] | 11
28 | CC1(F)CN(C(=O)Cn2ccc3scc(-c4cnc(Cl)nc4)c3c2=O)C1 [Example 140, 3-(2-chloropyrimidin-5-yl)-5-(2-(3-fluoro-3-methylazetidin-1-yl)-2-oxoethyl)thieno[3,2-c]pyridin-4(5H)-one] | 3.1
29 | CCC1(F)CN(C(=O)Cn2ccc3scc(-c4cnc(Cl)nc4)c3c2=O)C1 [Example 141, 3-(2-chloropyrimidin-5-yl)-5-(2-(3-ethyl-3-fluoroazetidin-1-yl)-2-oxoethyl)thieno[3,2-c]pyridin-4(5H)-one] | −4.1
30 | O=C(Cn1ccc2scc(-c3cnc(Cl)nc3)c2c1=O)N1CC(F)(CF)C1 [Example 142, 3-(2-chloropyrimidin-5-yl)-5-(2-(3-fluoro-3-(fluoromethyl)azetidin-1-yl)-2-oxoethyl)thieno[3,2-c]pyridin-4(5H)-one] | −4.2

Source: patent publication US12162890B2 (Novartis AG, priority 2015, dated 2024)
